Source: PubChem BioAssay AID270 (DTP/NCI, 2004)
Where “and” joins values, the source holds several entries; their conditions need not be identical. Identical values can stand only once. Inconclusive results are not listed.

Tested on: BDF1 mice, s.c. Lewis lung carcinoma, T/C %
Assay: NCI In Vivo Anticancer Drug Screen. Data for tumor model Lewis Lung Carcinoma (subcutaneous) in B6D2F1 (BDF1) mice
In short: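 Tumor-bearing mice were treated with test compound, and either survival or tumor size was recorded. Values are the treated-group measurement divided by that of the vehicle-treated control group.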

## O=C(O)CC(NC(=O)CP(=O)(O)O)C(=O)O (stereo unspecified)
endpoint: median survival time, dose: 12.5 mg/kg/injection, schedule: Q01DX009 (ip), vehicle: saline, higher = longer survival
  T/C: 120 % of control and 121 % of control
endpoint: median survival time, dose: 17.1 mg/kg/injection, schedule: Q01DX004 (ip), vehicle: saline, higher = longer survival
  T/C: 120 % of control
endpoint: median survival time, dose: 18.8 mg/kg/injection, schedule: Q01DX004 (ip), vehicle: saline, higher = longer survival
  T/C: 124 % of control
endpoint: median survival time, dose: 23.3 mg/kg/injection, schedule: Q01DX009 (ip), vehicle: saline, higher = longer survival
  T/C: 121 % of control
endpoint: median survival time, dose: 25.0 mg/kg/injection, schedule: Q01DX004 (ip), vehicle: saline, higher = longer survival
  T/C: 226 % of control
endpoint: median survival time, dose: 34.1 mg/kg/injection, schedule: Q01DX004 (ip), vehicle: saline, higher = longer survival
  T/C: 178 % of control
endpoint: median survival time, dose: 37.5 mg/kg/injection, schedule: Q01DX004 (ip), vehicle: saline, higher = longer survival
  T/C: 120 % of control
endpoint: median survival time, dose: 38.9 mg/kg/injection, schedule: Q01DX004 (ip), vehicle: saline, higher = longer survival
  T/C: 123 % of control
endpoint: median survival time, dose: 38.9 mg/kg/injection, schedule: Q01DX009 (oral), vehicle: saline, higher = longer survival
  T/C: 100 % of control
endpoint: median survival time, dose: 50.0 mg/kg/injection, schedule: Q01DX004 (ip), vehicle: saline, higher = longer survival
  T/C: 225 % of control
endpoint: median survival time, dose: 50.0 mg/kg/injection, schedule: Q01DX005 (ip), vehicle: saline, higher = longer survival
  T/C: 95 % of control
endpoint: median survival time, dose: 64.0 mg/kg/injection, schedule: Q01DX004 (ip), vehicle: saline, higher = longer survival
  T/C: 108 % of control
endpoint: median survival time, dose: 64.8 mg/kg/injection, schedule: Q01DX004 (ip), vehicle: saline, higher = longer survival
  T/C: 175 % of control and 197 % of control
endpoint: median survival time, dose: 64.8 mg/kg/injection, schedule: Q01DX009 (ip), vehicle: saline, higher = longer survival
  T/C: 167 % of control
endpoint: median survival time, dose: 64.8 mg/kg/injection, schedule: Q01DX009 (oral), vehicle: saline, higher = longer survival
  T/C: 103 % of control
endpoint: median survival time, dose: 68.3 mg/kg/injection, schedule: Q01DX004 (ip), vehicle: saline, higher = longer survival
  T/C: 247 % of control
endpoint: median survival time, dose: 68.3 mg/kg/injection, schedule: Q01DX004 (ip), vehicle: suspension in saline, higher = longer survival
  T/C: 112 % of control
endpoint: median survival time, dose: 70.0 mg/kg/injection, schedule: Q01DX009 (oral), vehicle: saline, higher = longer survival
  T/C: 122 % of control
endpoint: median survival time, dose: 75.0 mg/kg/injection, schedule: Q01DX004 (ip), vehicle: saline, higher = longer survival
  T/C: 247 % of control
endpoint: median survival time, dose: 100.0 mg/kg/injection, schedule: Q01DX004 (ip), vehicle: saline, higher = longer survival
  T/C: 226 % of control
endpoint: median survival time, dose: 108.0 mg/kg/injection, schedule: Q01DX004 (ip), vehicle: saline, higher = longer survival
  T/C: 197 % of control and 299 % of control
endpoint: median survival time, dose: 108.0 mg/kg/injection, schedule: Q01DX009 (ip), vehicle: saline, higher = longer survival
  T/C: 222 % of control
endpoint: median survival time, dose: 108.0 mg/kg/injection, schedule: Q01DX009 (oral), vehicle: saline, higher = longer survival
  T/C: 107 % of control
endpoint: median survival time, dose: 108.0 mg/kg/injection, schedule: Q04DX004 (ip), vehicle: saline, higher = longer survival
  T/C: 118 % of control
endpoint: median survival time, dose: 110.0 mg/kg/injection, schedule: Q01DX009 (oral), vehicle: saline, higher = longer survival
  T/C: 122 % of control
endpoint: median survival time, dose: 116.0 mg/kg/injection, schedule: Q01DX009 (ip), vehicle: saline, higher = longer survival
  T/C: 181 % of control
endpoint: median survival time, dose: 125.0 mg/kg/injection, schedule: Q01DX009 (ip), vehicle: saline, higher = longer survival
  T/C: 176 % of control and 194 % of control
endpoint: median survival time, dose: 133.0 mg/kg/injection, schedule: Q01DX007 (other), vehicle: saline, higher = longer survival
  T/C: 206 % of control
endpoint: median survival time, dose: 133.0 mg/kg/injection, schedule: Q01DX007 (sc), vehicle: saline, higher = longer survival
  T/C: 206 % of control
endpoint: median survival time, dose: 136.0 mg/kg/injection, schedule: Q01DX004 (ip), vehicle: suspension in saline, higher = longer survival
  T/C: 204 % of control
endpoint: median survival time, dose: 136.5 mg/kg/injection, schedule: Q01DX004 (ip), vehicle: saline, higher = longer survival
  T/C: 248 % of control
endpoint: median survival time, dose: 140.0 mg/kg/injection, schedule: Q01DX009 (ip), vehicle: saline, higher = longer survival
  T/C: 166 % of control
endpoint: median survival time, dose: 150.0 mg/kg/injection, schedule: Q01DX004 (ip), vehicle: saline, higher = longer survival
  T/C: 248 % of control
endpoint: median survival time, dose: 150.0 mg/kg/injection, schedule: Q01DX009 (ip), vehicle: saline, higher = longer survival
  T/C: 186 % of control
endpoint: median survival time, dose: 160.0 mg/kg/injection, schedule: Q01DX009 (oral), vehicle: saline, higher = longer survival
  T/C: 119 % of control
endpoint: median survival time, dose: 167.0 mg/kg/injection, schedule: Q01DX010 (ip), vehicle: saline, higher = longer survival
  T/C: 152 % of control
endpoint: median survival time, dose: 175.0 mg/kg/injection, schedule: Q01DX009 (ip), vehicle: saline, higher = longer survival
  T/C: 163 % of control
endpoint: median survival time, dose: 178.0 mg/kg/injection, schedule: Q01DX009 (ip), vehicle: saline, higher = longer survival
  T/C: 178 % of control and 237 % of control
endpoint: median survival time, dose: 180.0 mg/kg/injection, schedule: Q01DX009 (ip), vehicle: saline, higher = longer survival
  T/C: 159 % of control and 222 % of control
endpoint: median survival time, dose: 180.0 mg/kg/injection, schedule: Q01DX009 (oral), vehicle: saline, higher = longer survival
  T/C: 102 % of control
endpoint: median survival time, dose: 180.0 mg/kg/injection, schedule: Q04DX004 (ip), vehicle: saline, higher = longer survival
  T/C: 178 % of control
endpoint: median survival time, dose: 200.0 mg/kg/injection, schedule: Q01DX004 (ip), vehicle: saline, higher = longer survival
  T/C: 226 % of control
endpoint: median survival time, dose: 200.0 mg/kg/injection, schedule: Q01DX005 (ip), vehicle: saline, higher = longer survival
  T/C: 115 % of control
endpoint: median survival time, dose: 200.0 mg/kg/injection, schedule: Q01DX007 (other), vehicle: saline, higher = longer survival
  T/C: 206 % of control
endpoint: median survival time, dose: 200.0 mg/kg/injection, schedule: Q01DX007 (sc), vehicle: saline, higher = longer survival
  T/C: 206 % of control
endpoint: median survival time, dose: 200.0 mg/kg/injection, schedule: Q01DX009 (ip), vehicle: saline, higher = longer survival
  T/C: 225 % of control
endpoint: median survival time, dose: 240.0 mg/kg/injection, schedule: Q04DX003 (ip), vehicle: saline, higher = longer survival
  T/C: 150 % of control
endpoint: median survival time, dose: 250.0 mg/kg/injection, schedule: Q01DX010 (ip), vehicle: saline, higher = longer survival
  T/C: 158 % of control
endpoint: median survival time, dose: 265.0 mg/kg/injection, schedule: Q01DX009 (ip), vehicle: saline, higher = longer survival
  T/C: 195 % of control
endpoint: median survival time, dose: 273.0 mg/kg/injection, schedule: Q01DX004 (ip), vehicle: saline, higher = longer survival
  T/C: 195 % of control
endpoint: median survival time, dose: 273.0 mg/kg/injection, schedule: Q01DX004 (ip), vehicle: suspension in saline, higher = longer survival
  T/C: 177 % of control
endpoint: median survival time, dose: 300.0 mg/kg/injection, schedule: Q01DX007 (sc), vehicle: saline, higher = longer survival
  T/C: 198 % of control
endpoint: median survival time, dose: 300.0 mg/kg/injection, schedule: Q04DX004 (ip), vehicle: saline, higher = longer survival
  T/C: 169 % of control
endpoint: median survival time, dose: 343.0 mg/kg/injection, schedule: Q04DX003 (ip), vehicle: saline, higher = longer survival
  T/C: 153 % of control and 186 % of control (2×)
endpoint: median survival time, dose: 375.0 mg/kg/injection, schedule: Q01DX010 (ip), vehicle: saline, higher = longer survival
  T/C: 95 % of control
endpoint: median survival time, dose: 400.0 mg/kg/injection, schedule: Q01DX004 (ip), vehicle: saline, higher = longer survival
  T/C: 224 % of control
endpoint: median survival time, dose: 490.0 mg/kg/injection, schedule: Q04DX003 (ip), vehicle: saline, higher = longer survival
  T/C: 150 % of control and 186 % of control and 193 % of control
endpoint: median survival time, dose: 500.0 mg/kg/injection, schedule: Q04DX004 (ip), vehicle: saline, higher = longer survival
  T/C: 176 % of control
endpoint: median survival time, dose: 833.0 mg/kg/injection, schedule: Q04DX004 (ip), vehicle: saline, higher = longer survival
  T/C: 64 % of control
endpoint: median survival time, dose: 50.0 ml/mouse/injection, schedule: Q01DX005 (ip), vehicle: saline, higher = longer survival
  T/C: 94 % of control
endpoint: median survival time, dose: 200.0 ml/mouse/injection, schedule: Q01DX005 (ip), vehicle: saline, higher = longer survival
  T/C: 117 % of control

## CN(C)c1ccc(/C=C\c2ccnc3ccccc23)cc1
endpoint: mean tumor weight, dose: 1.25 mg/kg/injection, schedule: Q01DX011 (ip), vehicle: other, higher = larger tumour
  T/C: 103 % of control
endpoint: mean tumor weight, dose: 2.5 mg/kg/injection, schedule: Q01DX011 (ip), vehicle: other, higher = larger tumour
  T/C: 84 % of control
endpoint: mean tumor weight, dose: 5.0 mg/kg/injection, schedule: Q01DX011 (ip), vehicle: other, higher = larger tumour
  T/C: 75 % of control
endpoint: mean tumor weight, dose: 10.0 mg/kg/injection, schedule: Q01DX011 (ip), vehicle: other, higher = larger tumour
  T/C: 71 % of control and 83 % of control
endpoint: mean tumor weight, dose: 20.0 mg/kg/injection, schedule: Q01DX011 (ip), vehicle: other, higher = larger tumour
  T/C: 54 % of control and 68 % of control

## CCCCCCC(=O)O[C@H]1CC[C@H]2[C@@H]3CCC4=CC(=O)CC[C@]4(C)[C@H]3CC[C@]12C
endpoint: mean tumor weight (est.), dose: 10.0 mg/kg/injection, schedule: Q01DX009 (ip), vehicle: water, higher = larger tumour
  T/C: 73 % of control
endpoint: mean tumor weight (est.), dose: 20.0 mg/kg/injection, schedule: Q01DX009 (ip), vehicle: water, higher = larger tumour
  T/C: 111 % of control
endpoint: mean tumor weight (est.), dose: 40.0 mg/kg/injection, schedule: Q01DX009 (ip), vehicle: water, higher = larger tumour
  T/C: 52 % of control
endpoint: mean tumor weight (est.), dose: 80.0 mg/kg/injection, schedule: Q01DX009 (ip), vehicle: water, higher = larger tumour
  T/C: 93 % of control
endpoint: median survival time, dose: 10.0 mg/kg/injection, schedule: Q01DX009 (ip), vehicle: water, higher = longer survival
  T/C: 115 % of control
endpoint: median survival time, dose: 80.0 mg/kg/injection, schedule: Q01DX009 (ip), vehicle: water, higher = longer survival
  T/C: 101 % of control

## COC(=O)C(N)CCCCNc1ccc2c(cc1=O)C(NC(C)=O)CCc1cc(OC)c(OC)c(OC)c1-2 (stereo unspecified)
endpoint: median survival time, dose: 25.0 mg/kg/injection, schedule: Q02DX009 (ip), vehicle: saline with Tween-80, higher = longer survival
  T/C: 100 % of control
endpoint: median survival time, dose: 50.0 mg/kg/injection, schedule: Q02DX009 (ip), vehicle: saline with Tween-80, higher = longer survival
  T/C: 94 % of control

## CCOC(N)=O
endpoint: mean tumor weight, dose: 60.0 mg/kg/injection, schedule: Q01DX011 (ip), vehicle: saline, higher = larger tumour
  T/C: 119 % of control
endpoint: mean tumor weight, dose: 100.0 mg/kg/injection, schedule: Q01DX011 (ip), vehicle: saline, higher = larger tumour
  T/C: 90 % of control
endpoint: mean tumor weight, dose: 125.0 mg/kg/injection, schedule: Q01DX011 (ip), vehicle: saline, higher = larger tumour
  T/C: 123 % of control
endpoint: mean tumor weight, dose: 200.0 mg/kg/injection, schedule: Q01DX011 (ip), vehicle: saline, higher = larger tumour
  T/C: 60 % of control and 67 % of control and 69 % of control
endpoint: mean tumor weight, dose: 250.0 mg/kg/injection, schedule: Q01DX011 (ip), vehicle: saline, higher = larger tumour
  T/C: 62 % of control
endpoint: mean tumor weight, dose: 400.0 mg/kg/injection, schedule: Q01DX011 (ip), vehicle: saline, higher = larger tumour
  T/C: 33 % of control and 41 % of control and 56 % of control
endpoint: mean tumor weight, dose: 600.0 mg/kg/injection, schedule: Q01DX011 (ip), vehicle: saline, higher = larger tumour
  T/C: 38 % of control
